Measured values from PubChem BioAssay AID1963832 (Molecular Pharmacology Branch, DTP, NCI, 2024).

Test system: 885724-159-R-J1-PDC complex spheroid viability
Assay: Anticancer human tumor 885724-159-R-J1-PDC patient-derived pancreatic adenocarcinoma cell line growth inhibition [POLQ]
Details: for IC50: curve of first compound; for viability, T/C: stronger effect = lower value; active = viability on the fitted dose curve at most 10% of control; inactive = the rest
Method in brief: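 PDC + HUVEC + MSC complex spheroids; POLQ inhibitors ± partner drugs; top conc. at/near clinical Cmax, else 10 microM (SN-38 1 microM), half-log dilutions; 37 degrees C, 5% CO2.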

[1] = second compound 0.0316 µM, first compound 0.0316 µM
[2] = second compound 0.0316 µM, first compound 0.1 µM
[3] = second compound 0.0316 µM, first compound 0.316 µM
[4] = second compound 0.0316 µM, first compound 1 µM
[5] = second compound 0.0316 µM, first compound 3.16 µM
[6] = second compound 0.0316 µM, first compound 10 µM
[7] = second compound 0.1 µM, first compound 0.0316 µM
[8] = second compound 0.1 µM, first compound 0.1 µM
[9] = second compound 0.1 µM, first compound 0.316 µM
[10] = second compound 0.1 µM, first compound 1 µM
[11] = second compound 0.1 µM, first compound 3.16 µM
[12] = second compound 0.1 µM, first compound 10 µM
[13] = second compound 0.316 µM, first compound 0.0316 µM
[14] = second compound 0.316 µM, first compound 0.1 µM
[15] = second compound 0.316 µM, first compound 0.316 µM
[16] = second compound 0.316 µM, first compound 1 µM
[17] = second compound 0.316 µM, first compound 3.16 µM
[18] = second compound 0.316 µM, first compound 10 µM
[19] = second compound 1 µM, first compound 0.0316 µM
[20] = second compound 1 µM, first compound 0.1 µM
[21] = second compound 1 µM, first compound 0.316 µM
[22] = second compound 1 µM, first compound 1 µM
[23] = second compound 1 µM, first compound 3.16 µM
[24] = second compound 1 µM, first compound 10 µM
[25] = second compound 3.16 µM, first compound 0.0316 µM
[26] = second compound 3.16 µM, first compound 0.1 µM
[27] = second compound 3.16 µM, first compound 0.316 µM
[28] = second compound 3.16 µM, first compound 1 µM
[29] = second compound 3.16 µM, first compound 3.16 µM
[30] = second compound 3.16 µM, first compound 10 µM
[31] = second compound 10 µM, first compound 0.0316 µM
[32] = second compound 10 µM, first compound 0.1 µM
[33] = second compound 10 µM, first compound 0.316 µM
[34] = second compound 10 µM, first compound 1 µM
[35] = second compound 10 µM, first compound 3.16 µM
[36] = second compound 10 µM, first compound 10 µM
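Note: spheroids exposed to compounds for 7 days.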

C#Cc1c(F)ccc2cc(O)cc(-c3ncc4c(N5CC6CCC(C5)N6)nc(OCC56CCCN5CC(F)C6)nc4c3F)c12 (stereo unspecified) + Nc1ccc(C#CCN(C(=O)Cc2ncc(C(F)(F)F)cc2C(F)(F)F)c2ccc(F)cc2)nn1
3200 nM: IC50 (second compound 0.1 µM)
inactive: viability, T/C [1] 90.8% | viability, T/C [2] 92.6% | viability, T/C [3] 90.7% | viability, T/C [4] 64.2% | viability, T/C [5] 44.2% | viability, T/C [6] 23.8% | viability, T/C [7] 95.9% | viability, T/C [8] 100% | viability, T/C [9] 93.9% | viability, T/C [10] 73% | viability, T/C [11] 52.1% | viability, T/C [12] 25.3% | viability, T/C [13] 116% | viability, T/C [14] 88.4% | viability, T/C [15] 84.3% | viability, T/C [16] 71.2% | viability, T/C [17] 50.6% | viability, T/C [18] 23.4% | viability, T/C [19] 89.9% | viability, T/C [20] 96.6% | viability, T/C [21] 86.7% | viability, T/C [22] 71.3% | viability, T/C [23] 49.6% | viability, T/C [24] 24.2% | viability, T/C [25] 85.3% | viability, T/C [26] 87.2% | viability, T/C [27] 89.1% | viability, T/C [28] 75.9% | viability, T/C [29] 49.5% | viability, T/C [30] 24.5% | viability, T/C [31] 98.6% | viability, T/C [32] 89% | viability, T/C [33] 96.8% | viability, T/C [34] 72.6% | viability, T/C [35] 50.4% | viability, T/C [36] 22.9%
3030 nM: IC50 (second compound 10 µM)
2950 nM: IC50 (second compound 1 µM)
2780 nM: IC50 (second compound 0.316 µM)
2190 nM: IC50 (second compound 0.0316 µM)
3040 nM: IC50 (second compound 3.16 µM)

C=CC(=O)N1CCN(c2nc(=O)n(-c3c(C)ccnc3C(C)C)c3nc(-c4c(O)cccc4F)c(F)cc23)C(C)C1 (stereo unspecified) + Nc1ccc(C#CCN(C(=O)Cc2ncc(C(F)(F)F)cc2C(F)(F)F)c2ccc(F)cc2)nn1
inactive: viability, T/C [1] 96.3% | viability, T/C [2] 86% | viability, T/C [3] 101% | viability, T/C [4] 106% | viability, T/C [5] 103% | viability, T/C [6] 98.6% | viability, T/C [7] 108% | viability, T/C [8] 112% | viability, T/C [9] 110% | viability, T/C [10] 102% | viability, T/C [11] 122% | viability, T/C [12] 94% | viability, T/C [13] 96.5% | viability, T/C [14] 102% | viability, T/C [15] 105% | viability, T/C [16] 102% | viability, T/C [17] 110% | viability, T/C [18] 90.4% | viability, T/C [19] 96.4% | viability, T/C [20] 87.5% | viability, T/C [21] 93.2% | viability, T/C [22] 109% | viability, T/C [23] 110% | viability, T/C [24] 97.3% | viability, T/C [25] 96.9% | viability, T/C [26] 92.9% | viability, T/C [27] 98.4% | viability, T/C [28] 100% | viability, T/C [29] 117% | viability, T/C [30] 83.6% | viability, T/C [31] 95.7% | viability, T/C [32] 104% | viability, T/C [33] 98.6% | viability, T/C [34] 111% | viability, T/C [35] 97.5% | viability, T/C [36] 91.1%
> 10000 nM: IC50 (second compound 0.0316 µM) | IC50 (second compound 0.1 µM) | IC50 (second compound 0.316 µM) | IC50 (second compound 1 µM) | IC50 (second compound 3.16 µM) | IC50 (second compound 10 µM)

CC1COCCN1c1cc(C2(O)CC3CCC(C2)O3)c2cnn(-c3ccn[nH]3)c2n1 (stereo unspecified) + Nc1ccc(C#CCN(C(=O)Cc2ncc(C(F)(F)F)cc2C(F)(F)F)c2ccc(F)cc2)nn1
321 nM: IC50 (second compound 0.0316 µM)
202 nM: IC50 (second compound 3.16 µM)
236 nM: IC50 (second compound 10 µM)
inactive: viability, T/C [1] 72.7% | viability, T/C [2] 54.7% | viability, T/C [3] 50.8% | viability, T/C [4] 42.6% | viability, T/C [5] 36.3% | viability, T/C [6] 26.8% | viability, T/C [7] 77.8% | viability, T/C [8] 58.3% | viability, T/C [9] 46.2% | viability, T/C [10] 40.6% | viability, T/C [11] 37.4% | viability, T/C [12] 31.4% | viability, T/C [13] 72.4% | viability, T/C [14] 52.5% | viability, T/C [15] 45.2% | viability, T/C [16] 38.9% | viability, T/C [17] 39.9% | viability, T/C [18] 28.4% | viability, T/C [19] 65.2% | viability, T/C [20] 51.5% | viability, T/C [21] 47.7% | viability, T/C [22] 43.6% | viability, T/C [23] 35.9% | viability, T/C [24] 27% | viability, T/C [25] 67% | viability, T/C [26] 53% | viability, T/C [27] 45.4% | viability, T/C [28] 43.5% | viability, T/C [29] 35.3% | viability, T/C [30] 30.4% | viability, T/C [31] 62.9% | viability, T/C [32] 53% | viability, T/C [33] 49.4% | viability, T/C [34] 41.8% | viability, T/C [35] 37% | viability, T/C [36] 30.5%
177 nM: IC50 (second compound 0.316 µM)
237 nM: IC50 (second compound 0.1 µM) | IC50 (second compound 1 µM)
